Earlier results as cited in patent US8697713B2, “Pyrrolopyrimidines for pharmaceutical compositions” (Boehringer Ingelheim International GmbH, priority 2006, dated 2014).

How the values were obtained:
[1] = target: human Mnk2 protein (Homo sapiens, UniProt Q9HBH9)
[2] = tested on: phosphorylated eIF4E; conditions: cell culture cells transfected with Mnk2 (Mnk2a or Mnk2b) or Mnk1

human Mnk2 protein, sequence (Q9HBH9 whole entry): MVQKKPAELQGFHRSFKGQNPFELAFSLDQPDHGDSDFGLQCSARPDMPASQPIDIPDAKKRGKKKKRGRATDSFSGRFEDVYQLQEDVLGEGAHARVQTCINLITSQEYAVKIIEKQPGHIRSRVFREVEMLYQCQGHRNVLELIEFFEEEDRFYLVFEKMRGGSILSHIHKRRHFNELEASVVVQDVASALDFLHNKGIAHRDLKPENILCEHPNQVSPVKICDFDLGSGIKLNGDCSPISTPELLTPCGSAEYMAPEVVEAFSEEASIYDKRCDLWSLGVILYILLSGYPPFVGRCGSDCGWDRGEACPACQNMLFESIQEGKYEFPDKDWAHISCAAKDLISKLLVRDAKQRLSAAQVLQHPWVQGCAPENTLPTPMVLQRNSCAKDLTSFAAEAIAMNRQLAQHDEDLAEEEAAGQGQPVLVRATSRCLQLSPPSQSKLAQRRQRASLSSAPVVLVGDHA

Row | SMILES | binds the human Mnk2 protein [1] | reduction of phosphorylated eIF4E [2]
1 | COC(=O)c1ccc(O)cc1 [4-hydroxybenzoic acid methyl ester] | binds | 
2 | Nc1ncnc2n[nH]c(Nc3ccc(F)cc3)c12 [CGP57380] |  | strong reduction
